Test results from ChEMBL document CHEMBL1127007, “Quinazolinones 2: QSAR and in vivo characterization of AT1 selective AII antagonists” (Bioorg Med Chem Lett, 1993).
pIC50: −log10 of the molar value.

Key:
[1] = target: T1, Type-2 angiotensin II receptor (Homo sapiens) (UniProt P50052); test: In vitro antagonist activity against the Angiotensin II (type 2) receptor.; type: functional
T1 sequence (whole entry): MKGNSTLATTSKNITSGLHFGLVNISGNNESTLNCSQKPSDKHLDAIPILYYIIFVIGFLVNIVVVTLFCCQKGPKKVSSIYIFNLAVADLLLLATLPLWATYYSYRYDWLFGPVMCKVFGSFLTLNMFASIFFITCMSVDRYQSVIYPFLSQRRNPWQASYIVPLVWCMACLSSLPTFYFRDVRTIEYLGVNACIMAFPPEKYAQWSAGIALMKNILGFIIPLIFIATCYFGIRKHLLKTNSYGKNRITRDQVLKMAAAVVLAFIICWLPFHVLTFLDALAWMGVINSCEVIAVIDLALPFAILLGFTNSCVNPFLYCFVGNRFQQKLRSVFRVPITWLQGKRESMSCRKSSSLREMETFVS

[2] = target: T2, Type-1 angiotensin II receptor (Oryctolagus cuniculus, UniProt P34976); test: Displacement of [125I]Sar1-Ile8-AII (without BSA) from type 1 Angiotensin II receptor of rabbit aorta; type: tissue-based
T2 sequence (P34976 whole entry): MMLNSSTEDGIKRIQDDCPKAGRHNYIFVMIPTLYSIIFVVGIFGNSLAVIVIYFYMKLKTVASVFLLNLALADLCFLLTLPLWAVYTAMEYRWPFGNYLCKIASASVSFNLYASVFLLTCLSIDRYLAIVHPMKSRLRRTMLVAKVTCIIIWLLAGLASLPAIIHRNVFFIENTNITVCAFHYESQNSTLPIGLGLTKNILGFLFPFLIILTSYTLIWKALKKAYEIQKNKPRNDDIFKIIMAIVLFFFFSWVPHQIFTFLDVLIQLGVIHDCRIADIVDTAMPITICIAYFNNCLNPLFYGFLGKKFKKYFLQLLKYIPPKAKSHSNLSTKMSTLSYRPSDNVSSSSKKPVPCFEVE

[3] = target: T2, Type-1 angiotensin II receptor; test: Ability to displace [125I]Sar1-Ile8-AII from angiotensin II receptor, type 1 in rabbit aorta in presence of 0.2% bovine serum albumin (BSA) was determined in vitro; type: tissue-based
[4] = target: Angiotensin II receptor (Rattus norvegicus) (UniProt P29089+P25095+P35351); test: Duration of action as time for pressor response to fall below 30% for a single bolus by intravenous dose; type: functional, organism-based
[5] = test system: Rattus norvegicus; test: The duration of action is expressed as the time for the % inhibition of pressor response to fall below 30% for a single bolus of the drug administered perorally.; type: functional
[6] = test system: Rattus norvegicus; test: Compound was evaluated in vivo for inhibition of the AII pressor response in normotensive rat at dose 0.3 mg/kg, iv after 3.5 hr; type: functional
[7] = test system: Rattus norvegicus; test: Compound was evaluated in vivo for inhibition of the AII pressor response in normotensive rat at dose 0.3 mg/kg, iv after 6 hours; type: functional
[8] = test system: Rattus norvegicus; test: Compound was evaluated in vivo for inhibition of the AII pressor response in normotensive rat at dose 0.3 mg/kg, po; type: functional
[9] = test system: Rattus norvegicus; test: In vivo for inhibition of the AII pressor response in normotensive rat at dose 0.3 mg/kg(iv) after 0.8 hour; type: functional
[10] = test system: Rattus norvegicus; test: Compound was evaluated in vivo for inhibition of the AII pressor response in normotensive rat at dose 1 mg/kg, iv after 0.9 hour; type: functional
[11] = test system: Rattus norvegicus; test: The duration of action is expressed as the time for the % inhibition of pressor response to fall below 30% for a single bolus of the drug administered intravenously.; type: functional
[12] = test system: Rattus norvegicus; test: Compound was evaluated in vivo for inhibition of the AII pressor response in normotensive rat at dose 1 mg/kg, iv after 0.2 hour; type: functional

Compound | Activity [1] | pIC50 [2] | pIC50 [3] | Duration [4] | Duration [5] | inhibition in vivo at 0.3 mg/kg [6] | inhibition in vivo at 0.3 mg/kg [7] | inhibition in vivo at 0.3 mg/kg [8] | inhibition in vivo at 0.3 mg/kg [9] | inhibition in vivo at 1 mg/kg [10] | Duration [11] | inhibition in vivo at 1 mg/kg [12]
CCCCc1nc2ccc(NC(=O)NC(C)C)cc2c(=O)n1Cc1ccc(-c2ccccc2-c2nn[nH]n2)cc1 | > 1000 nM | 9.30 | 9.12 | > 6 h | 0 h | 86% | 86% | 0% | – | – | – | –
CCCCc1nc2ccc(N(C)C(=O)N(C)C(C)C)cc2c(=O)n1Cc1ccc(-c2ccccc2-c2nn[nH]n2)cc1 | > 1000 nM | – | – | 0.8 h | – | – | – | – | 70% | – | – | –
CCCCc1nc2ccc(NC(C)=O)cc2c(=O)n1Cc1ccc(-c2ccccc2-c2nn[nH]n2)cc1 | > 1000 nM | – | – | 0.9 h | – | – | – | – | – | 97% | – | –
CCCCc1nc2ccc(OC)cc2c(=O)n1Cc1ccc(-c2ccccc2-c2nn[nH]n2)cc1 | > 1000 nM | – | – | – | – | – | – | – | – | – | 0.2 h | 49%
